These results are taken from patent publication US8147818B2, “Hepatitis C virus inhibitors” (Bristol-Myers Squibb Company, priority 2008, dated 2012).

The first experiment deals with HCV 1b-377-neo replicon cells. Description: HCV Replicon assay, HCV 1b-377-neo replicon cells. It is filed as cell-based, HCV 1b genotype. The note with it: Hepatitis C virus, read-out: EC50 against HCV 1b (Activity or Range). As to the method:
An HCV Replicon assay was utilized in the present disclosure, and was prepared, conducted and validated as described in commonly owned PCT/US2006/022197 and in O'Boyle et. al. Antimicrob Agents Chemother. 2005 April; 49(4):1346-53.
HCV 1b-377-neo replicon cells were used to test the currently described compound series as well as cells resistant to compound A containing a Y2065H mutation in NS5A (described in application PCT/US2006/022197). The compounds tested were determined to have more than 10-fold less inhibitory activity on cells containing the mutation than wild-type cells indicating a related mechanism of action between the two compound series. Thus, the compounds of the present disclosure can be effective to inhibit the function of the HCV NS5A protein and are understood to be as effective in combinations as previously described in application PCT/US2006/022197 and commonly owned WO/O4014852. Further, the compounds of the present disclosure can be effective against the HCV 1b genotype. It should also be understood that the compounds of the present disclosure can inhibit multiple genotypes of HCV. […] In one embodiment compounds of the present disclosure are active against the 1a, 1b, 2a, 2b, 3a, 4a, and 5a genotypes.
As to `COC(=O)N[C@H](C(=O)N1CCC[C@H]1c1ncc(-c2cccc(-c3ccc4c(c3)-c3nc([C@@H]5CCCN5C(=O)[C@@H](NC(=O)OC)C(C)C)[nH]c3CCC4)c2)[nH]1)C(C)C` [Example 22j], the EC50 (commonly the concentration giving half of the maximal effect) worked out at 14 nM.
Turning to `COC(=O)N[C@H](C(=O)N1[C@@H]2C[C@@H]2C[C@H]1c1nc2c([nH]1)CCc1cc(-c3ccc(-c4[nH]c([C@@H]5C[C@H]6C[C@H]6N5C(=O)[C@@H](NC(=O)OC)C(C)C)nc4CC(F)(F)F)cc3)ccc1-2)C(C)C` [Example 22r.3], the EC50 was 0.003 nM.
Take `COC(=O)N[C@H](C(=O)N1CCC[C@H]1c1ncc(-c2ccc(-c3ccc4c(c3)CCc3[nH]c([C@@H]5CCCN5C(=O)[C@@H](NC(=O)OC)[C@@H](C)OC)nc3-4)cc2F)[nH]1)[C@H](C)OC` [Example 22s.c]: the EC50 worked out at 0.02 nM.
On to `CCN(CC)[C@@H](C(=O)N1CCC[C@H]1c1ncc(-c2ccc(-c3ccc4c(ccc5[nH]c([C@@H]6CCCN6C(=O)[C@@H](c6ccccc6)N(CC)CC)nc54)c3)cc2)[nH]1)c1ccccc1` [Example 22u.a], for which the concentration giving a half-maximal response (EC50) turned out to be 0.01 nM.

Staying with this experiment, now noted: Hepatitis C virus, read-out: EC50 against HCV 1b (Activity or Range), range class.
In the case of `COC(=O)N[C@H](C(=O)N1CCC[C@H]1c1ncc(-c2ccc(-c3ccc4c(c3)OCc3[nH]c([C@@H]5CCCN5C(=O)[C@@H](NC(=O)OC)C(C)C)nc3-4)cc2)[nH]1)C(C)C` [Example 22r.b], the EC50 lay in the range of 0.001 to 0.1 nM.
Turning to `COC(=O)N[C@@H](C(=O)N1CCC[C@H]1c1ncc(-c2ccc(-c3ccc4c(c3)OCCc3[nH]c([C@@H]5CCCN5C(=O)[C@H](NC(=O)OC)c5ccccc5)nc3-4)cc2)[nH]1)c1ccccc1` [Example 22a.1], the EC50 lay within 0.001 to 0.1 nM.
Consider `COC(=O)N[C@H](C(=O)N1CCC[C@H]1c1ncc(-c2ccc(-c3ccc4c(c3)CCCCc3c-4nc([C@@H]4CCCN4C(=O)[C@@H](NC(=O)OC)C(C)C)n3O)cc2)[nH]1)C(C)C` [Example 22q], for which the EC50 lay within 0.001 to 0.1 nM.
`COC(=O)N[C@H](C(=O)N1CCC[C@H]1c1ncc(-c2ccc(-c3ccc4c(c3)CCCCc3[nH]c([C@@H]5CCCN5C(=O)[C@@H](NC(=O)OC)C(C)C)nc3-4)cc2)[nH]1)C(C)C` [Example 22x.1]: the EC50 fell in the range of 0.001 to 0.1 nM.
For the molecule `CCN(CC)[C@@H](C(=O)N1[C@@H]2C[C@@H]2C[C@H]1c1ncc(-c2ccc(-c3ccc4c(c3)CCc3[nH]c([C@@H]5C[C@H]6C[C@H]6N5C(=O)[C@@H](c5ccccc5)N(CC)CC)nc3-4)cc2F)[nH]1)c1ccccc1` [Example 22s.1a], the EC50 lay in the range of 0.001 to 0.1 nM.
Regarding `COC(=O)N[C@H](C(=O)N[C@@H](C)c1ncc(-c2ccc(-c3ccc4c(c3)CCCc3[nH]c([C@H](C)NC(=O)[C@@H](NC(=O)OC)C(C)C)nc3-4)cc2)[nH]1)C(C)C` [Example 22d], the EC50 was 0.001 to 0.1 nM.
Regarding `CCN(CC)[C@@H](C(=O)N1CCC[C@H]1c1ncc(-c2ccc(-c3ccc4c(ccc5[nH]c([C@@H]6CC(F)(F)CN6C(=O)[C@@H](c6ccccc6)N(CC)CC)nc54)c3)cc2)[nH]1)c1ccccc1` [Example 22w.1a], the EC50 was in the range of 0.001 to 0.1 nM.
For the molecule `COC(=O)N[C@H](C(=O)N1CCC[C@H]1c1ncc(-c2ccc(-c3ccc4c(ccc5[nH]c([C@@H]6CCCN6C(=O)[C@@H](NC(=O)OC)C(C)C)nc54)c3)cc2F)[nH]1)C(C)C` [Example 22v], the concentration giving a half-maximal response (EC50) is 0.001 to 0.1 nM.
Regarding `COC(=O)N[C@H](C(=O)N1CCC[C@H]1c1nc2c([nH]1)CCc1cc(-c3ccc(-c4[nH]c([C@@H]5CCCN5C(=O)[C@@H](NC(=O)OC)C(C)C)nc4CCC(F)(F)F)cc3)ccc1-2)C(C)C` [Example 22r.1], the EC50 was 0.001 to 0.1 nM.
Same read-out and setting: next, `CCN(CC)[C@@H](C(=O)N1[C@@H]2C[C@@H]2C[C@H]1c1ncc(-c2ccc(-c3ccc4c(ccc5[nH]c([C@@H]6C[C@H]7C[C@H]7N6C(=O)[C@@H](c6ccccc6)N(CC)CC)nc54)c3)cc2F)[nH]1)c1ccccc1` [Example 22v.1a]: 0.001 to 0.1 nM.
For the molecule `COC(=O)N[C@@H](C(=O)N(C)[C@@H](C)c1nc2c([nH]1)CCOc1cc(-c3ccc(-c4cnc([C@@H]5CCCN5C(=O)[C@H](NC(=O)OC)c5ccccc5)[nH]4)cc3)ccc1-2)c1ccccc1` [Example 22b.3], the EC50 lay in the range of 0.001 to 0.1 nM.
Consider `CCN(CC)[C@@H](C(=O)N1CCC[C@H]1c1ncc(-c2ccc(-c3ccc4c(c3)CCCc3c-4nc([C@@H]4CCCN4C(=O)[C@@H](c4ccccc4)N(CC)CC)n3O)cc2)[nH]1)c1ccccc1` [Example 22n.1], for which the EC50 fell in the range of 0.001 to 0.1 nM.
Same read-out and setting: in the case of `COC(=O)N[C@H](C(=O)N1CCC[C@H]1c1ncc(-c2ccc(-c3ccc4c(ccc5[nH]c([C@@H]6CCCN6C(=O)[C@@H](NC(=O)OC)[C@@H](C)OC)nc54)c3)cc2)[nH]1)[C@H](C)OC` [Example 22u.b] it was 0.001 to 0.1 nM; in that of `CCN(CC)[C@@H](C(=O)N1CCC[C@H]1c1nc2c(ccc3cc(-c4ccc5c(ccc6nc([C@@H]7CCCN7C(=O)[C@@H](c7ccccc7)N(CC)CC)[nH]c65)c4)ccc32)[nH]1)c1ccccc1` [Example 22u.2a], 0.001 to 0.1 nM.
For `COC(=O)N[C@H](C(=O)N1[C@@H]2C[C@@H]2C[C@H]1c1ncc(-c2ccc(-c3ccc4c(ccc5[nH]c([C@@H]6C[C@H]7C[C@H]7N6C(=O)[C@@H](NC(=O)OC)C(C)C)nc54)c3)cc2F)[nH]1)C(C)C` [Example 22v.1], the EC50 was in the range of 0.001 to 0.1 nM.
Take `COC(=O)N[C@H](C(=O)N1CCC[C@H]1c1ncc(-c2ccc(-c3ccc4c(c3)CCCc3c-4nc([C@@H]4CCCN4C(=O)[C@@H](NC(=O)OC)C(C)C)n3O)cc2)[nH]1)C(C)C` [Example 22n]: the EC50 is 0.001 to 0.1 nM.
Consider `COC(=O)N[C@H](C(=O)N1CCC[C@H]1c1ncc(-c2ccc(-c3ccc4c(ccc5[nH]c([C@@H]6CC(F)(F)CN6C(=O)[C@@H](NC(=O)OC)C(C)C)nc54)c3)cc2)[nH]1)C(C)C` [Example 22w.1], for which the concentration giving a half-maximal response (EC50) is 0.001 to 0.1 nM.
For the molecule `COC(=O)N[C@H](C(=O)N1[C@@H]2C[C@@H]2C[C@H]1c1ncc(-c2ccc(-c3ccc4c(ccc5[nH]c([C@@H]6C[C@H]7C[C@H]7N6C(=O)[C@@H](NC(=O)OC)C(C)C)nc54)c3)cc2)[nH]1)C(C)C` [Example 22u.1], the concentration for a half-maximal effect (EC50) is 0.001 to 0.1 nM.
Regarding `COC(=O)N[C@H](C(=O)N1CCC[C@H]1c1nc2c(ccc3cc(-c4ccc5c(ccc6nc([C@@H]7CCCN7C(=O)[C@@H](NC(=O)OC)C(C)C)[nH]c65)c4)ccc32)[nH]1)C(C)C` [Example 22u.2], the EC50 lay in the range of 0.001 to 0.1 nM.
In the case of `COC(=O)N[C@@H](C(=O)N1[C@@H]2C[C@@H]2C[C@H]1c1ncc(-c2ccc(-c3ccc4c(c3)CCc3[nH]c([C@@H]5C[C@H]6C[C@H]6N5C(=O)[C@H](NC(=O)OC)c5ccccc5)nc3-4)cc2)[nH]1)c1ccccc1` [Example 22r.2b], the EC50 was 0.001 to 0.1 nM.
Regarding `CCN(CC)[C@@H](C(=O)N1[C@@H]2C[C@@H]2C[C@H]1c1ncc(-c2ccc(-c3ccc4c(c3)CCc3[nH]c([C@@H]5C[C@H]6C[C@H]6N5C(=O)[C@@H](c5ccccc5)N(CC)CC)nc3-4)cc2)[nH]1)c1ccccc1` [Example 22r.2a], the EC50 fell in the range of 0.001 to 0.1 nM.
Turning to `CCN(CC)[C@@H](C(=O)N1CCC[C@H]1c1ncc(-c2ccc(-c3ccc4c(ccc5[nH]c([C@@H]6CCCN6C(=O)[C@@H](c6ccccc6)N(CC)CC)nc54)c3)cc2F)[nH]1)c1ccccc1` [Example 22v.a], the concentration giving a half-maximal response (EC50) lay in the range of 0.101 to 0.999 nM.
`COC(=O)N[C@H](C(=O)N1CCC[C@H]1c1nc2c([nH]1)CCc1cc(-c3ccc4c(c3)CCc3[nH]c([C@@H]5CCCN5C(=O)[C@@H](NC(=O)OC)C(C)C)nc3-4)ccc1-2)C(C)C` [Example 22r.4]: the concentration for a half-maximal effect (EC50) fell in the range of 0.001 to 0.1 nM.
